# Measured values from patent US20240239790A1, “7-Morpholino-1,6-Naphthyridin-5-yl Derivatives and Pharmaceutical Compositions Thereof Useful as DNA-PK Inhibitor” (adMare Therapeutics Society, priority 2021, published 2024).
# pIC50: −log10 of the molar value.
# Target: T1, DNA-PK phosphorylation at Serine 2056 (Homo sapiens, UniProt P78527)
# T1 construct: FaDu cells were purchased from ATCC; host or cells: FaDu
# Experiment: Cellular Assay for Inhibition of DNA-PK Phosphorylation at Serine 2056 in FaDu cells (sandwich ELISA, neocarzinostatin)
# Type: cell-based
# Settings: pSer2056 DNA-PK, Table 3
# Procedure: FaDu cells were purchased from ATCC and maintained in MEM alpha medium (Life Technologies, cat. no. 12561) supplemented with 10% fetal bovine serum, and 1% GlutaMAX at 37° C. supplemented with 5% CO2. 50,000 cells were seeded to each well of a 96-well cell culture plate in 50 μL of culture medium and incubated for 16-24 hours. Three-fold serially diluted compounds were prepared in DMSO. Culture media was used to prepare compound treatments to 0.3% DMSO (dimethyl sulphoxide) content. Compound treatments were added to the cells for 1 hour prior incubation, followed by the addition of neocarzinostatin in fresh culture medium to 1 μg/mL final concentration for an additional 2 hours incubation to induce DNA DSBs (double-strand breaks). DMSO controls were incubated with fresh culture medium alone for the additional two hours incubation. The cells were then lysed and frozen at −20° C. Cell lysates were thawed on wet ice and protein concentrations quantified by BCA Protein Assay (Thermo #23225). Lysis buffer was used to normalize lysates by protein content and all lysates were then investigated by sandwich ELISA by means of DNA-PK-specific antibodies (Abcam ab44815: total DNA-PK; ab124918: phosphoserine-2056 DNA-PK) in sandwich ELISA format on the MSD S600MM platform (MesoScale Discovery). % inhibition was calculated for all data points: =1−(DATA_PT−AVERAGE(DMSO controls))/(AVERAGE(NCS controls)−AVERAGE(DMSO controls)). Logarithm of the molar concentration of compound was plotted against percent inhibition to calculate IC50 values, with curve fit settings for data fit to log(inhibitor) vs. normalized response—Variable slope using curve fit software (GraphPad Prism).
row,pIC50,Structure (SMILES)
1,4.52 to 5.00,"CC(Oc1cnc2cc(N3CCOCC3)nc(O[C@H]3CC[C@@H](Nc4cncc(C(F)(F)F)n4)CC3)c2c1)c1cnc([N+](=O)[O-])n1C (stereo partly shown) [LFA2096, N-[4-[[3-[1-(3-methyl-2-nitro-imidazol-4-yl)ethoxy]-7-morpholino-1,6-naphthyridin-5-yl]oxy]cyclohexyl]-6-(trifluoromethyl)pyrazin-2-amine]"
2,> 7.00,"CS(=O)(=O)Nc1cnc2cc(N3CCOCC3)nc(O[C@H]3CC[C@@H](Nc4ncc(N5CCOCC5)cn4)CC3)c2c1 [LFA2029, N-[7-morpholino-5-[4-[(5-morpholinopyrimidin-2-yl)amino]cyclohexoxy]-1,6-naphthyridin-3-yl]methanesulfonamide]"
3,> 7.00,"CS(=O)(=O)Nc1cnc2cc(N3CCOCC3)nc(O[C@H]3CC[C@@H](Nc4ncc(OCCN5CCOCC5)cn4)CC3)c2c1 [LFA2023, N-[7-morpholino-5-[4-[[5-(2-morpholinoethoxy)pyrimidin-2-yl]amino]cyclohexoxy]-1,6-naphthyridin-3-yl]methanesulfonamide]"
4,> 7.00,"CS(=O)(=O)Nc1cnc2cc(N3CCOCC3)nc(O[C@H]3CC[C@@H](Nc4ncc(N5CCN(C6COC6)CC5)cn4)CC3)c2c1 [LFA2019, N-[7-morpholino-5-[4-[[5-[4-(oxetan-3-yl)piperazin-1-yl]pyrimidin-2-yl]amino]cyclohexoxy]-1,6-naphthyridin-3-yl]methanesulfonamide]"
5,> 7.00,"CN1CCN(CCc2cnc(N[C@H]3CC[C@@H](Oc4nc(N5CCOCC5)cc5ncc(NS(C)(=O)=O)cc45)CC3)nc2)CC1 [LFA2031, N-[5-[4-[[5-[2-(4-methylpiperazin-1-yl)ethyl]pyrimidin-2-yl]amino]cyclohexoxy]-7-morpholino-1,6-naphthyridin-3-yl]methanesulfonamide]"
6,> 7.00,"CS(=O)(=O)Nc1cnc2cc(N3CCOCC3)nc(O[C@H]3CC[C@@H](Nc4ncc(CN5CCOCC5)cn4)CC3)c2c1 [LFA2020, N-[7-morpholino-5-[4-[[5-(morpholinomethyl)pyrimidin-2-yl]amino]cyclohexoxy]-1,6-naphthyridin-3-yl]methanesulfonamide]"
7,> 7.00,"CN1CCN(CCOc2cnc(N[C@H]3CC[C@@H](Oc4nc(N5CCOCC5)cc5ncc(O)cc45)CC3)nc2)CC1 [LFA2034, 5-[4-[[5-[2-(4-methylpiperazin-1-yl)ethoxy]pyrimidin-2-yl]amino]cyclohexoxy]-7-morpholino-1,6-naphthyridin-3-ol]"
8,> 7.00,"CS(=O)(=O)Nc1cnc2cc(N3CCOCC3)nc(O[C@H]3CC[C@@H](Nc4ncc(CCN5CCOCC5)cn4)CC3)c2c1 [LFA2030, N-[7-morpholino-5-[4-[[5-(2-morpholinoethyl)pyrimidin-2-yl]amino]cyclohexoxy]-1,6-naphthyridin-3-yl]methanesulfonamide]"
9,> 7.00,"CN(C)CCOc1cnc(N[C@H]2CC[C@@H](Oc3nc(N4CCOCC4)cc4ncc(O)cc34)CC2)nc1 [LFA2079, 5-[4-[[5-[2-(dimethylamino)ethoxy]pyrimidin-2-yl]amino]cyclohexoxy]-7-morpholino-1,6-naphthyridin-3-ol]"
10,6.00 to 7.00,"CN1CCC(Oc2cnc(N[C@H]3CC[C@@H](Oc4nc(N5CCOCC5)cc5ncc(NS(C)(=O)=O)cc45)CC3)nc2)C1 (stereo partly shown) [LFA2025, N-[5-[4-[[5-(1-methylpyrrolidin-3-yl)oxypyrimidin-2-yl]amino]cyclohexoxy]-7-morpholino-1,6-naphthyridin-3-yl]methanesulfonamide]"
11,> 7.00,"CN1CCC(Oc2cnc(N[C@H]3CC[C@@H](Oc4nc(N5CCOCC5)cc5ncc(O)cc45)CC3)nc2)C1 (stereo partly shown) [LFA2033, 5-[4-[[5-(1-methylpyrrolidin-3-yl)oxypyrimidin-2-yl]amino]cyclohexoxy]-7-morpholino-1,6-naphthyridin-3-ol]"

# More lines, now with the values behind:
row,Structure (SMILES),pIC50
1,"CN1CCc2nc(N[C@H]3CC[C@@H](Oc4nc(N5CCOCC5)cc5ncc(NS(C)(=O)=O)cc45)CC3)ccc2C1 [LFA2008, N-[5-[4-[(6-methyl-7,8-dihydro-5H-1,6-naphthyridin-2-yl)amino]cyclohexoxy]-7-morpholino-1,6-naphthyridin-3-yl]methanesulfonamide]",> 7.00
2,CS(=O)(=O)Nc1cnc2cc(N3CCOCC3)nc(O[C@H]3CC[C@@H](Nc4ncc(N5CCN(CCF)CC5)cn4)CC3)c2c1 [LFA2013],> 7.00
3,"CS(=O)(=O)Nc1cnc2cc(N3CCOCC3)nc(O[C@H]3CC[C@@H](Nc4cc5c(cn4)CNCC5)CC3)c2c1 [LFA2002, N-[7-morpholino-5-[4-(5,6,7,8-tetrahydro-2,7-naphthyridin-3-ylamino)cyclohexoxy]-1,6-naphthyridin-3-yl]methanesulfonamide]",6.00 to 7.00
4,"CS(=O)(=O)Nc1cnc2cc(N3CCOCC3)nc(O[C@H]3CC[C@@H](Nc4ncc(N5CC6CNCC6C5)cn4)CC3)c2c1 (stereo partly shown) [LFA2015, N-[5-[4-[[5-(2,3,3a,4,6,6a-hexahydro-1H-pyrrolo[3,4-c]pyrrol-5-yl)pyrimidin-2-yl]amino]cyclohexoxy]-7-morpholino-1,6-naphthyridin-3-yl]methanesulfonamide]",6.00 to 7.00
5,"CS(=O)(=O)Nc1cnc2cc(N3CCOCC3)nc(O[C@H]3CC[C@@H](Nc4ncc5c(n4)CCNC5)CC3)c2c1 [LFA2005, N-[7-morpholino-5-[4-(5,6,7,8-tetrahydropyrido[4,3-d]pyrimidin-2-ylamino)cyclohexoxy]-1,6-naphthyridin-3-yl]methanesulfonamide]",6.00 to 7.00
6,"CS(=O)(=O)Nc1cnc2cc(N3CCOCC3)nc(O[C@H]3CC[C@@H](Nc4ncc(N5CCN(CC(F)(F)F)CC5)cn4)CC3)c2c1 [LFA2017, N-[7-morpholino-5-[4-[[5-[4-(2,2,2-trifluoroethyl)piperazin-1-yl]pyrimidin-2-yl]amino]cyclohexoxy]-1,6-naphthyridin-3-yl]methanesulfonamide]",> 7.00
7,"CS(=O)(=O)Nc1cnc2cc(N3CCOCC3)nc(O[C@H]3CC[C@@H](Nc4ncc5c(n4)CNCC5)CC3)c2c1 [LFA2004, N-[7-morpholino-5-[4-(5,6,7,8-tetrahydropyrido[3,4-d]pyrimidin-2-ylamino)cyclohexoxy]-1,6-naphthyridin-3-yl]methanesulfonamide]",6.00 to 7.00
8,"CS(=O)(=O)Nc1cnc2cc(N3CCOCC3)nc(O[C@H]3CC[C@@H](Nc4ncc(N5CCN(CC(F)F)CC5)cn4)CC3)c2c1 [LFA2018, N-[5-[4-[[5-[4-(2,2-difluoroethyl)piperazin-1-yl]pyrimidin-2-yl]amino]cyclohexoxy]-7-morpholino-1,6-naphthyridin-3-yl]methanesulfonamide]",> 7.00
9,"CN1CCN(c2ccc(N[C@H]3CC[C@@H](Oc4nc(N5CCOCC5)cc5ncc(NS(C)(=O)=O)cc45)CC3)nc2)CC1 [LFA2001, N-[5-[4-[[5-(4-methylpiperazin-1-yl)-2-pyridyl]amino]cyclohexoxy]-7-morpholino-1,6-naphthyridin-3-yl]methanesulfonamide]",> 7.00
10,"CS(=O)(=O)Nc1cnc2cc(N3CCOCC3)nc(O[C@H]3CC[C@@H](Nc4ncc(N5CCNCC5)cn4)CC3)c2c1 [LFA2014, N-[7-morpholino-5-[4-[(5-piperazin-1-ylpyrimidin-2-yl)amino]cyclohexoxy]-1,6-naphthyridin-3-yl]methanesulfonamide]",6.00 to 7.00
11,Oc1cnc2cc(N3CCOCC3)nc(O[C@H]3CC[C@@H](Nc4ncc(N5CCN(CC(F)F)CC5)cn4)CC3)c2c1 [LFA2012],> 7.00
